# From paper PMC3662833 (Journal of molecular biology, 2011)
# How the values were obtained:
# Unmodified ASL^Lys3UUU = assay: FITC-peptide fluorescence quenching titration with ASL; type: binding, human; details: in words; for interaction with unmodified ASL^Lys3UUU: FITC-peptide fluorescence quenching
# [1] = in words
# ASL^Val3UAC-m^6A37 = assay: FITC-peptide fluorescence quenching titration with ASL; type: binding, E. coli; details: in words
# E. coli ASL^Val3UAC = assay: ESI-MS complex formation; type: binding; details: peptide in five-fold excess, preliminary, data not shown
# Peptide structure by CD = type: physicochemical; details: in words
# unmodified hASL^Lys3UUU = assay: ESI-MS complex formation; type: binding, human; details: preliminary, data not shown, in words
sequence,measurement,setting,value
"AGPVPLHSLSYYYNQ [Peptide P31, reference compound]",RNA binding (control peptide),"Unmodified ASL^Lys3UUU; control used as a baseline, ASL not specified, data not shown",non-RNA binding
HRGYCRDRWNCGEYF [Peptide P15],solubility,[1],lacked the solubility required of the assay
PHRQCSAPAKSCKILP [Peptide P17],interaction with unmodified ASL^Lys3UUU,Unmodified ASL^Lys3UUU,little to no interaction
RVTHHAFLGAHRTVG [Peptide P6],interaction with unmodified ASL^Lys3UUU,Unmodified ASL^Lys3UUU,little to no interaction
same,binding of ASL^Val3UAC-m^6A37,ASL^Val3UAC-m^6A37,did not bind
same,RNA in complex with P6,E. coli ASL^Val3UAC,50%
same,structure as determined by CD,Peptide structure by CD,lack of structure
same,RNA bound by P6,unmodified hASL^Lys3UUU,small amounts
